From patent publication EP0166986A1, “Disubstituted 3,7-diaryl-1,5,3,7-dioxadiazocines, and process for their preparation” (Deutsches Krebsforschungszentrum Stiftung des öffentlichen …, priority 1984, dated 1986) come the findings set out here.

Series [1] concerns TA100. Briefly: Mutagenicity test (Ames test), preincubation with or without rat liver S9. The format is cell-based, S. Typhimurium. The procedure:
(§1) • a) Mutagenitätsprüfungen Die Versuchsverbindung, gelöst in 40 µl an Dimethylsulphoxid und 100 µl eines Übernacht-Kulturmediums wurde zu 500 µl eines S9-Gemisches gegeben das 100 µl Leber S9 von mit Aroclor behandelten männlichen BD VI Ratten, 50 µl 0,15 M KC1 - 5 mM Sørensen Puffer pH 7,4 , […] Sørensen Phosphat Puffer (pH 7,4), […] NADP^+, 2,5 µmol Glukose-6-phosphat und […] MgC12 enthält. Das Gemisch wurde bei 37°C 30 Minuten lang unter Schütteln vorinkubiert und dann mit 2 ml histidinarmem Weichagar für die Plattenbildung auf minimalem Glukoseagar kombiniert. Die Anzahl der Revertanten wurde nach 48-stündiger Inkubation bei 37°C gezählt.
(§2) Mutagenität von synthetischen zyklischen Dioxadiazocinen in S. Typhimurium Stämmen. • a) Die meisten Zahlen entsprechen Mittelwerten aus zwei Versuchsreihen, die je dreifach gemacht wurden. Die Anzahl der spontanen Revertanten pro Platte (in Gegenwart des Lösungsmittels) wurde abgezogen. • b) AS: die Versuche wurden in Gegenwart (+) oder in Abwesenheit (-) eines metabolischen Aktivierungssystems aus S9 Rattenleber durchgeführt. • c) Die Konzentration bei welcher die untersuchten Verbindungen in S9-Mischung ausfielen.

The subject of series [2] is TA98. The series is described as above. The format is cell-based, S. Typhimurium. The method, then:
as §1, §2

Series [3] deals with S. Typhimurium Stämmen. Briefly: Mutagenicity test (Ames test), summary statements not tied to one strain. The format is cell-based. As to conditions: for Mutagenität: S. Typhimurium strains, overall result in words. The method, then:
as §1, §2

[4] abbreviates: TA100, +AS (rat liver S9), 30 µg pro Platte, spontaneous revertants subtracted.
The mark [5] stands for this setting: TA100, +AS (rat liver S9), 100 µg pro Platte, spontaneous revertants subtracted (pp'-CH3O CO precipitated in S9 mix).
[6] abbreviates: TA100, +AS (rat liver S9), 300 µg pro Platte, compounds precipitated in S9 mix, spontaneous revertants subtracted.
[7] abbreviates: TA100, -AS, 30 µg pro Platte, spontaneous revertants subtracted.
[8] abbreviates: TA100, -AS, 100 µg pro Platte, spontaneous revertants subtracted.
Setting [9] is: TA100, -AS, 300 µg pro Platte, spontaneous revertants subtracted.
The mark [10] stands for this setting: TA98, +AS (rat liver S9), 30 µg pro Platte, spontaneous revertants subtracted.
[11] abbreviates: TA98, +AS (rat liver S9), 100 µg pro Platte, spontaneous revertants subtracted (pp'-CH3O CO precipitated in S9 mix).
Setting [12] is: TA98, +AS (rat liver S9), 300 µg pro Platte, compounds precipitated in S9 mix, spontaneous revertants subtracted.
Where [13] appears, read: TA98, -AS, 30 µg pro Platte, spontaneous revertants subtracted.
[14] abbreviates: TA98, -AS, 100 µg pro Platte, spontaneous revertants subtracted.
Where [15] appears, read: TA98, -AS, 300 µg pro Platte, spontaneous revertants subtracted.

As to `FC(F)(F)c1ccc(N2COCN(c3ccc(C(F)(F)F)cc3)COC2)cc1` [pp'-CF3, para-Trifluormethyl-3,7-diphenyl-1,5,3,7-dioxadiazocin], the “Anzahl der Revertanten pro Platte” value turned out to be 44 Revertanten pro Platte in series [1] (setting [4]); 86 Revertanten pro Platte in series [1] (setting [5]); 98 Revertanten pro Platte in series [1] (setting [6]); 96 Revertanten pro Platte in series [1] (TA100, +AS (rat liver S9), 1000 µg pro Platte, compound precipitated in S9 mix, spontaneous revertants subtracted); 8 Revertanten pro Platte in series [1] (setting [7]); 14 Revertanten pro Platte in series [1] (setting [8]). For the same molecule, the “Anzahl der Revertanten pro Platte” value in series [1] (setting [9]) came out at 5 Revertanten pro Platte; in series [1] (TA100, -AS, 1000 µg pro Platte, spontaneous revertants subtracted) it was 1 Revertanten pro Platte; in series [2] (setting [10]), 10 Revertanten pro Platte; in series [2] (setting [11]), 14 Revertanten pro Platte; in series [2] (setting [12]), 24 Revertanten pro Platte; in series [2] (TA98, +AS (rat liver S9), 1000 µg pro Platte, compound precipitated in S9 mix, spontaneous revertants subtracted) it was 12 Revertanten pro Platte. Also, the “Anzahl der Revertanten pro Platte” value came out at 0 Revertanten pro Platte in series [2] (setting [13]); 0 Revertanten pro Platte in series [2] (setting [14]); 2 Revertanten pro Platte in series [2] (setting [15]); 0 Revertanten pro Platte in series [2] (TA98, -AS, 1000 µg pro Platte, spontaneous revertants subtracted). The Mutagenität result is listed as “schwach mutagen” in series [1] (TA100, in presence of metabolic activation system, result in words) and “mutagen” in series [3].
With `O=[N+]([O-])c1ccc(N2COCN(c3ccc([N+](=O)[O-])cc3)COC2)cc1` [pp'-NO2], the “Anzahl der Revertanten pro Platte” value in series [1] (TA100, +AS (rat liver S9), 10 µg pro Platte, spontaneous revertants subtracted) was determined as 22 Revertanten pro Platte; in series [1] (setting [4]), 78 Revertanten pro Platte; in series [1] (setting [5]), 195 Revertanten pro Platte; in series [1] (setting [6]) it was 357 Revertanten pro Platte; in series [1] (TA100, -AS, 10 µg pro Platte, spontaneous revertants subtracted), 13 Revertanten pro Platte; in series [1] (setting [7]), 31 Revertanten pro Platte. For the same molecule, the “Anzahl der Revertanten pro Platte” value in series [1] (setting [8]) worked out at 100 Revertanten pro Platte; in series [1] (setting [9]), 206 Revertanten pro Platte; in series [2] (TA98, +AS (rat liver S9), 10 µg pro Platte, spontaneous revertants subtracted), 37 Revertanten pro Platte; in series [2] (setting [10]), 88 Revertanten pro Platte; in series [2] (setting [11]) it was 280 Revertanten pro Platte; in series [2] (setting [12]), 507 Revertanten pro Platte. Also, the “Anzahl der Revertanten pro Platte” value is reported as 65 Revertanten pro Platte in series [2] (TA98, -AS, 10 µg pro Platte, spontaneous revertants subtracted); 163 Revertanten pro Platte in series [2] (setting [13]); 373 Revertanten pro Platte in series [2] (setting [14]); 839 Revertanten pro Platte in series [2] (setting [15]). Also, the “Mutagenität (Vergleich der Verbindungen)” value is “aktivste Verbindung” in series [1] (TA100, rank among the three tested compounds) and “aktivste Verbindung” in series [2] (TA98, rank among the three tested compounds). The “Mutagenität der reaktiven metabolischen Spezies” value in series [1] (with metabolic activation, TA100 compared with TA98) is “nur in TA100 mutagen oder stärker mutagen”. Also, the “direkte Mutagenität” value is “höher in TA98” in series [2] (without metabolic activation, TA98 compared with TA100) and “direkt mutagen” in series [3] (without metabolic activation, result in words). Besides, in series [3], the Mutagenität entry was “mutagen”.
